Assay results reported in patent US20140303092A1 (CHIMERIX, INC., priority 2011, published 2014).

Assay: Study HDP-CDV-201: safety and tolerability (adverse events, laboratory abnormalities, discontinuations)
Format: in vivo, human (adult allogeneic HSCT recipients)
Details: for Subjects with Neutrophils <0.5 GI/L / Subjects with Neutrophils <1.0-0.5 GI/L / Subjects with Neutrophils <1.5-1 GI/L / Subjects with Neutrophils <LLN-1.5 GI/L / Subjects with Platelets <25 GI/L / Subjects with Platelets <50-25 GI/L / Subjects with Platelets <75-50 GI/L / Subjects with Platelets <LLN-75 GI/L / Subjects with Serum Creatinine >1 × ULN-[…] ULN / Subjects with Serum Creatinine >3 × ULN-6 × ULN / Subjects with Serum Creatinine >6 × ULN / Subjects with Serum Creatinine >[…] ULN-3 × ULN / Subjects with WBC <1 GI/L / Subjects with WBC <2-1 GI/L / Subjects with WBC <3-2 GI/L / Subjects with WBC <LLN-3 GI/L / Subjects with Hemoglobin <6.5 g/dL / Subjects with Hemoglobin <8-6.5 g/dL / Subjects with Hemoglobin <10-8 g/dL / Subjects with Hemoglobin <LLN-10 g/dL: any time during therapy; for Subjects Receiving Aldesleukin / Subjects Receiving Blood and Related Products / Subjects Receiving Blood, Whole / Subjects Receiving Filgrastim / Subjects Receiving Granulocyte Colony Stimulating Factor / Subjects Receiving Pegfilgrastim / Subjects Receiving Platelets / Subjects Receiving Red Blood Cells / Subjects Receiving Red Blood Cells, Concentrated / Subjects Receiving Sargramostim: during the Treatment Period; for Cause of death: individual subjects who died
Experimental: Clinical Studies of HDP-CDV were performed and described in detail in the following Examples. For example, HDP-CDV-201 is a placebo-controlled, dose-escalating trial in HSCT CMV (R+) recipients, evaluating the ability of HDP-CDV to prevent or control CMV infection was carried out. Five cohorts were established in which participants or subjects received either placebo or the HDP-CDV orally, in doses ranging from 40 mg weekly (QW) to 200 mg twice weekly (BIW). Subjects who were post-HSCT were enrolled at the time of engraftment and randomized to HDP-CDV or placebo (3 to 1 ratio) and received blinded therapy until approximately 100 day post-transplantation. HDP-CDV doses were 40 mg QW, 100 mg QW, 200 mg QW, 200 mg BIW and 100 mg BIW. Escalation to the next dose was decided by the data monitoring committee after review of the safety data from the previous Cohort. Subjects who developed CMV disease or CMV infection requiring pre-emptive therapy with local standard of care were discontinued from blinded therapy and followed for 4 weeks. Subjects who completed treatment with blinded therapy were followed for 8 weeks post-therapy.
Data from Study HDP-CDV-201 also provided characterization of the safety and tolerability profile of HDP-CDV when administered for the prevention or control of CMV infection in high risk (R^+) post-HSCT adult subjects.
The Safety population (SAFETY) included all randomized subjects who took at least one dose of study treatment. This population was used to summarize safety outcomes based on the treatment actually received, in cases where a subject was treated contrary to the randomization schedule.
The safety and tolerability profile of HDP-CDV, including subject demographics and Baseline characteristics; the AE profile; and laboratory abnormalities of interest were analyzed in the cohorts followed in this investigation.
Subjects completing the treatment period received a full course of study medication; those completing the entire study attended visits through 8 weeks of follow up. Subjects who discontinued treatment may have done so for protocol specified reasons (e.g. development of clinically significant CMV infection requiring preemptive treatment with excluded anti-CMV medications) or for other reasons (e.g., withdrawal, adverse events, loss to follow-up). The disposition of subjects in Study HDP-CDV-201 during the double-blind, placebo-controlled treatment period (through Week 11) is listed by dosing Cohort in TABLE 23.
Adverse events were examined by severity to ensure that all safety signals were identified in this study population. Because of the frequency of events in HSCT recipients, particular attention was given to evaluation of Grade 3 […], 4 (severe), and 5 (fatal) adverse events.
Only those preferred terms for which at least one Grade 3 or higher event was experienced in any treatment group are listed. Cytomegalovirus-related AEs are excluded from this analysis.
HDP-CDV is a lipid conjugate of CDV. Because CDV is known to have adverse effects on renal function and bone marrow, decreased GFR and persistent neutropenia were identified as AEs of special interest. Key renal and hematological (TABLE 30) laboratory parameters were measured and listed below by Study HDP-CDV-201 treatment groups. TABLE 30 includes abnormal levels of serum creatinine, neutrophils, platelets, WBCs, and hemoglobin and includes data at Screening and during the treatment period.
A common metric for unit based dosing of medications is by weight (mg/kg). When the distribution of weights was examined for all subjects participating in the study, the median was 78 kg and the lower 25th percentile weight was approximately 65 kg, which translates to a cut-off of ˜3 mg/kg for a 200 mg total weekly dose. Based upon this approach, a cut-off of 3 mg/kg was used to assess the frequency of diarrhea and associated GI AEs reported for the subjects in Cohorts 3 or 4a (TABLE 40).

Structure (SMILES): CCCCCCCCCCCCCCCCOCCCOP(=O)(O)COC(CO)Cn1ccc(N)nc1=O (stereo not shown) [HDP-CDV]
- Subjects with Neutrophils <0.5 GI/L (100 mg QW): 3 (11.1%)
- Subjects with Neutrophils <1.0-0.5 GI/L (100 mg QW): 2 (7.4%)
- Subjects with Neutrophils <1.5-1 GI/L (100 mg QW): 9 (33.3%)
- Subjects with Neutrophils <LLN-1.5 GI/L (100 mg QW): 1 (3.7%)
- Subjects with Platelets <25 GI/L (100 mg QW): 4 (14.8%)
- Subjects with Platelets <50-25 GI/L (100 mg QW): 6 (22.2%)
- Subjects with Platelets <75-50 GI/L (100 mg QW): 6 (22.2%)
- Subjects with Platelets <LLN-75 GI/L (100 mg QW): 7 (25.9%)
- Subjects with Serum Creatinine >1 × ULN-[…] ULN (100 mg QW): 16 (59.3%)
- Subjects with Serum Creatinine >3 × ULN-6 × ULN (100 mg QW): 0
- Subjects with Serum Creatinine >6 × ULN (100 mg QW): 0
- Subjects with Serum Creatinine >[…] ULN-3 × ULN (100 mg QW): 5 (18.5%)
- Subjects with WBC <1 GI/L (100 mg QW): 3 (11.1%)
- Subjects with WBC <2-1 GI/L (100 mg QW): 4 (14.8%)
- Subjects with WBC <3-2 GI/L (100 mg QW): 6 (22.2%)
- Subjects with WBC <LLN-3 GI/L (100 mg QW): 4 (14.8%)
- Subjects with Hemoglobin <6.5 g/dL (200 mg BIW): 0
- Subjects with Hemoglobin <8-6.5 g/dL (200 mg BIW): 2 (7.1%)
- Subjects with Hemoglobin <10-8 g/dL (200 mg BIW): 12 (42.9%)
- Subjects with Hemoglobin <LLN-10 g/dL (200 mg BIW): 12 (42.9%)
- Subjects with Neutrophils <0.5 GI/L (200 mg BIW): 0
- Subjects with Neutrophils <1.0-0.5 GI/L (200 mg BIW): 4 (14.3%)
- Subjects with Neutrophils <1.5-1 GI/L (200 mg BIW): 7 (25.0%)
- Subjects with Neutrophils <LLN-1.5 GI/L (200 mg BIW): 3 (10.7%)
- Subjects with Platelets <25 GI/L (200 mg BIW): 8 (28.6%)
- Subjects with Platelets <50-25 GI/L (200 mg BIW): 8 (28.6%)
- Subjects with Platelets <75-50 GI/L (200 mg BIW): 2 (7.1%)
- Subjects with Platelets <LLN-75 GI/L (200 mg BIW): 6 (21.4%)
- Subjects with Serum Creatinine >1 × ULN-[…] ULN (200 mg BIW): 11 (37.9%)
- Subjects with Serum Creatinine >3 × ULN-6 × ULN (200 mg BIW): 0
- Subjects with Serum Creatinine >6 × ULN (200 mg BIW): 0
- Subjects with Serum Creatinine >[…] ULN-3 × ULN (200 mg BIW): 1 (3.4%)
- Subjects with WBC <1 GI/L (200 mg BIW): 2 (7.1%)
- Subjects with WBC <2-1 GI/L (200 mg BIW): 5 (17.9%)
- Subjects with WBC <3-2 GI/L (200 mg BIW): 9 (32.1%)
- Subjects with WBC <LLN-3 GI/L (200 mg BIW): 3 (10.7%)
- Subjects with Hemoglobin <6.5 g/dL (200 mg QW): 0
- Subjects with Hemoglobin <8-6.5 g/dL (200 mg QW): 5 (13.2%)
- Subjects with Hemoglobin <10-8 g/dL (200 mg QW): 19 (50.0%)
- Subjects with Hemoglobin <LLN-10 g/dL (200 mg QW): 13 (34.2%)
- Subjects with Neutrophils <0.5 GI/L (200 mg QW): 2 (5.3%)
- Subjects with Neutrophils <1.0-0.5 GI/L (200 mg QW): 7 (18.4%)
- Subjects with Neutrophils <1.5-1 GI/L (200 mg QW): 11 (28.9%)
- Subjects with Neutrophils <LLN-1.5 GI/L (200 mg QW): 1 (2.6%)
- Subjects with Platelets <25 GI/L (200 mg QW): 7 (18.4%)
- Subjects with Platelets <50-25 GI/L (200 mg QW): 13 (34.2%)
- Subjects with Platelets <75-50 GI/L (200 mg QW): 7 (18.4%)
- Subjects with Platelets <LLN-75 GI/L (200 mg QW): 7 (18.4%)
- Subjects with Serum Creatinine >1 × ULN-[…] ULN (200 mg QW): 16 (42.1%)
- Subjects with Serum Creatinine >3 × ULN-6 × ULN (200 mg QW): 0
- Subjects with Serum Creatinine >6 × ULN (200 mg QW): 0
- Subjects with Serum Creatinine >[…] ULN-3 × ULN (200 mg QW): 2 (5.3%)
- Subjects with WBC <1 GI/L (200 mg QW): 1 (2.6%)
- Subjects with WBC <2-1 GI/L (200 mg QW): 13 (34.2%)
- Subjects with WBC <3-2 GI/L (200 mg QW): 7 (18.4%)
- Subjects with WBC <LLN-3 GI/L (200 mg QW): 6 (15.8%)
- drug induced liver injury (DILI) (course of the study): No case of drug induced liver injury (DILI) clearly attributable to HDP-CDV
- Subjects Receiving Aldesleukin (40 mg QW): 0
- Subjects Receiving Blood and Related Products (40 mg QW): 1 (4.0%)
- Subjects Receiving Blood, Whole (40 mg QW): 0
- Subjects Receiving Filgrastim (40 mg QW): 4 (16.0%)
- Subjects Receiving Granulocyte Colony Stimulating Factor (40 mg QW): 0
- Subjects Receiving Pegfilgrastim (40 mg QW): 0
- Subjects Receiving Platelets (40 mg QW): 5 (20.0%)
- Subjects Receiving Red Blood Cells (40 mg QW): 0
- Subjects Receiving Red Blood Cells, Concentrated (40 mg QW): 2 (8.0%)
- Subjects Receiving Sargramostim (40 mg QW): 0
- Subjects Receiving Aldesleukin (100 mg BIW): 0
- Subjects Receiving Blood and Related Products (100 mg BIW): 0
- Subjects Receiving Blood, Whole (100 mg BIW): 0
- Subjects Receiving Filgrastim (100 mg BIW): 11 (22.0%)
- Subjects Receiving Granulocyte Colony Stimulating Factor (100 mg BIW): 0
- Subjects Receiving Pegfilgrastim (100 mg BIW): 2 (4.0%)
- Subjects Receiving Platelets (100 mg BIW): 6 (12.0%)
- Subjects Receiving Red Blood Cells (100 mg BIW): 3 (6.0%)
- Subjects Receiving Red Blood Cells, Concentrated (100 mg BIW): 6 (12.0%)
- Subjects Receiving Sargramostim (100 mg BIW): 0
- Subjects Receiving Aldesleukin (100 mg QW): 0
- Subjects Receiving Blood and Related Products (100 mg QW): 0
- Subjects Receiving Blood, Whole (100 mg QW): 1 (3.7%)
- Subjects Receiving Filgrastim (100 mg QW): 4 (14.8%)
- Subjects Receiving Granulocyte Colony Stimulating Factor (100 mg QW): 0
- Subjects Receiving Pegfilgrastim (100 mg QW): 0
- Subjects Receiving Platelets (100 mg QW): 3 (11.1%)
- Subjects Receiving Red Blood Cells (100 mg QW): 2 (7.4%)
- Subjects Receiving Red Blood Cells, Concentrated (100 mg QW): 3 (11.1%)
- Subjects Receiving Sargramostim (100 mg QW): 0
- Subjects Receiving Aldesleukin (200 mg BIW): 0
- Subjects Receiving Blood and Related Products (200 mg BIW): 0
- Subjects Receiving Blood, Whole (200 mg BIW): 0
- Subjects Receiving Filgrastim (200 mg BIW): 5 (16.7%)
- Subjects Receiving Granulocyte Colony Stimulating Factor (200 mg BIW): 1 (3.3%)
- Subjects Receiving Pegfilgrastim (200 mg BIW): 1 (3.3%)
- Subjects Receiving Platelets (200 mg BIW): 6 (20.0%)
- Subjects Receiving Red Blood Cells (200 mg BIW): 4 (13.3%)
- Subjects Receiving Red Blood Cells, Concentrated (200 mg BIW): 5 (16.7%)
- Subjects Receiving Sargramostim (200 mg BIW): 0
- Subjects Receiving Aldesleukin (200 mg QW): 0
- Subjects Receiving Blood and Related Products (200 mg QW): 0
- Subjects Receiving Blood, Whole (200 mg QW): 0
- Subjects Receiving Filgrastim (200 mg QW): 11 (28.2%)
- Subjects Receiving Granulocyte Colony Stimulating Factor (200 mg QW): 1 (2.6%)
- Subjects Receiving Pegfilgrastim (200 mg QW): 1 (2.6%)
- Subjects Receiving Platelets (200 mg QW): 6 (15.4%)
- Subjects Receiving Red Blood Cells (200 mg QW): 3 (7.7%)
- Subjects Receiving Red Blood Cells, Concentrated (200 mg QW): 6 (15.4%)
- Subjects Receiving Sargramostim (200 mg QW): 1 (2.6%)
- relation of deaths to study drug (entire study duration): None of the deaths were considered by the Investigators as related to HDP-CDV
- Cause of death (dose 100 mg BIW): Gut GVHD
- Cause of death (dose 200 mg BIW): GI bleed
- average increase in ALT from Baseline at time of maximum ALT increase (range across cohorts): 1.53 to 3.55 fold
- nephrotoxicity or myelotoxicity (regardless of dose and dosing frequency): no indication of nephrotoxicity or myelotoxicity
